Tests used:
[1] = Inhibition of Rickettsia prowazekii methionine aminopeptidase 1 using methionine-aminomethylcoumarin as substrate preincubated for 1 hrs followed by substrate addition and measured after 30 mins by fluorescence based plate reader analysis
[2] = Inhibition of Rickettsia prowazekii methionine aminopeptidase 1 using methionine-aminomethylcoumarin as substrate at 10 uM preincubated for 1 hrs followed by substrate addition and measured after 30 mins by fluorescence based plate reader analysis relative to control; conditions: time 1.5 hrs

SMILES | IC50 [1] [µM] | inhibition [2] [%]
O=C1c2cccc3cccc(c23)C(=O)N1CC1CO1 (centres undefined) | 4.8 | > 60
Oc1cccc(C(Nc2nccs2)c2ccc3cccnc3c2O)c1 (centres undefined) | 1.4 | > 60
Nc1nc(=O)[nH]cc1F [FLUCYTOSINE] | 6.9 | > 60
Cc1ccc(Oc2ccccc2-c2csc(N=C3NCCCN3)n2)c(C)c1 [ABAFUNGIN] | 5.4 | > 60
CONC(=N)c1ccc(-c2ccc(-c3ccc(C(=N)NOC)cc3)o2)cc1 [PAFURAMIDINE] | 2.9 | > 60
O=C(O)c1ccc(-c2ccccc2Cl)o1 | 2.4 | 
C[C@@H](c1nc(-c2ccc(C#N)cc2)cs1)[C@](O)(Cn1cncn1)c1ccc(F)cc1F [RAVUCONAZOLE] | 5.2 | > 60
COc1ccc(C)cc1NC(=O)c1ccc(S(=O)(=O)N2CCCCC2)cc1 | 2.4 | > 60
O=c1cc(Nc2ccc3ccccc3c2)[nH]c(=O)[nH]1 | 1.8 | > 60
CN(O)C(=O)c1cc2c(CN3CCC[C@H]3C(N)=O)cn(Cc3ccc(F)cc3)c2cn1 | 4.2 | > 60
COc1cc(Cc2cnc(N)nc2N)cc(OC)c1OC [TRIMETHOPRIM] | 5.1 | > 60
Cc1cc(-c2ccccc2)c(C(=O)C(=O)Nc2ccc(N3CCN(c4ncc(F)cn4)CC3)cc2)n1C [OLOROFIM] | 4.2 | > 60
O=C(CP(=O)(O)O)NCCc1cccc(Oc2ccccc2)c1 | 7 | > 60
Fc1ccc(-n2cc(Cn3c(-c4cccc(F)c4)nc4ccccc43)nn2)cc1 | 4.1 | > 60
O=C(Nc1nnc(-c2ccc(Cl)cc2)o1)c1nc2ccccc2s1 | 5.5 | > 60
CCCCCCC1c2ccc(O)cc2Oc2cc(O)ccc21 | 10 | > 60
O=[N+]([O-])/C(Br)=C/c1ccc(Br)o1 | 2.9 | > 60
O=C(NCc1ccc(F)cc1)c1c(O)c2ncccc2[nH]c1=O | 1.9 | > 60
O=C(O)c1ccc(-n2nc(-c3ccccc3O)nc2-c2ccccc2O)cc1 [DEFERASIROX] | 2.1 | > 60
CN(C)CCCNC(=O)c1ccc(-c2cc(O)c3ncccc3c2)cc1 | 0.34 | > 60

— ChEMBL document CHEMBL6092126, “Inhibitors of Rickettsia prowazekii methionine aminopeptidase 1 identified from the Pandemic Response Box” (Bioorg Med Chem Lett, 2024)
